According to PubChem BioAssay (NCI):
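Assay format: 96-well plates, 48-hour exposure. GI50 marks 50% less growth. TGI denotes the concentration required for complete inhibition of growth.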

system: LOX IMVI melanoma; assay: DTP human tumour cell line panel, 48 h

Point of comparison: `Nc1nc(F)nc2c1ncn2C1OC(CO)C(O)C1O` (centres undefined), GI50 19.9 µM. Against it:
- CC1=C[C@H]2c3c(c(O)c(O)c4oc(-c5ccccc5)cc(=O)c34)[C@H](c3cc(O)c(O)c4oc(-c5ccccc5)cc(=O)c34)[C@H]2C(C)(C)C1 — 50-fold lower, 0.395 µM
- CCn1c(SCc2ccc(C)cc2)nnc1-c1nn(-c2ccc(Cl)cc2Cl)c(-c2ccc(Cl)cc2)c1C — 7.3-fold lower, 2.72 µM
- O=c1cccc(C#CC#CC2=CCCCC2)o1 — 6.4-fold lower, 3.09 µM
- O=C1Nc2ccc(F)cc2/C1=C/c1ccc[nH]1 — within 1.5-fold, 24.2 µM
- Br[C](Br)(Br)[Hg][c]1ccccc1 — 2-fold lower, 9.71 µM
- C1C[OH+]CC[OH+]CC[OH+]CC[OH+]CC[OH+]1.[Cl-].[V] — 1.5-fold higher, 30.6 µM
- CC(=O)C(=CN1CCN(C(=O)c2ccco2)C1=S)C(C)=O — 9.4-fold lower, 2.12 µM

Point of comparison: `CCn1c(SCc2ccc(C)cc2)nnc1-c1nn(-c2ccc(Cl)cc2Cl)c(-c2ccc(Cl)cc2)c1C`, TGI 10.7 µM. Against it:
- CC1=C[C@H]2c3c(c(O)c(O)c4oc(-c5ccccc5)cc(=O)c34)[C@H](c3cc(O)c(O)c4oc(-c5ccccc5)cc(=O)c34)[C@H]2C(C)(C)C1 — 8-fold lower, 1.33 µM
- N#Cc1cccnc1Cl — higher, > 100 µM
- Nc1nc(F)nc2c1ncn2C1OC(CO)C(O)C1O (centres undefined) — higher, > 100 µM
- CCn1c(-c2ccc(OC(C)=O)cc2)c(C)c2cc(OC(C)=O)ccc21 — 2.9-fold higher, 30.6 µM
- COc1ccc(OC)c2c(C(=O)O)c(Cc3ccccc3)ccc12 — higher, > 100 µM
- O=C(Nc1c(Cl)cc([N+](=O)[O-])cc1Cl)C(=O)C(C1OC(=O)c2ccccc21)[N+](=O)[O-] (centres undefined) — higher, > 100 µM
- Cc1c(C(=O)/C=C/c2ccccc2)[n+](=O)c2ccccc2n1[O-] — 2.6-fold higher, 28.3 µM
- N#CC1CC2(C1)OCCS2 (centres undefined) — higher, > 100 µM
- O=C1Nc2ccc(F)cc2/C1=C/c1ccc[nH]1 — higher, > 25 µM
- Br[C](Br)(Br)[Hg][c]1ccccc1 — 2.2-fold higher, 23.2 µM
- C1C[OH+]CC[OH+]CC[OH+]CC[OH+]CC[OH+]1.[Cl-].[V] — higher, > 100 µM
- CC(=O)C(=CN1CCN(C(=O)c2ccco2)C1=S)C(C)=O — 2.3-fold lower, 4.62 µM
- COc1ccc(CC2NCCc3cc(OC)c(OC)cc32)cc1Br (centres undefined) — 4.4-fold higher, 47.1 µM

system: RXF 393 renal; assay: DTP human tumour cell line panel, 48 h

Point of comparison: `C1C[OH+]CC[OH+]CC[OH+]CC[OH+]CC[OH+]1.[Cl-].[V]`, GI50 18.1 µM. Against it:
- CC1=C[C@H]2c3c(c(O)c(O)c4oc(-c5ccccc5)cc(=O)c34)[C@H](c3cc(O)c(O)c4oc(-c5ccccc5)cc(=O)c34)[C@H]2C(C)(C)C1 — 74-fold lower, 0.245 µM
- Nc1nc(F)nc2c1ncn2C1OC(CO)C(O)C1O (centres undefined) — 5.4-fold higher, 97.6 µM
- CCn1c(SCc2ccc(C)cc2)nnc1-c1nn(-c2ccc(Cl)cc2Cl)c(-c2ccc(Cl)cc2)c1C — 6.7-fold lower, 2.69 µM
- O=c1cccc(C#CC#CC2=CCCCC2)o1 — 6.7-fold lower, 2.69 µM
- O=C1Nc2ccc(F)cc2/C1=C/c1ccc[nH]1 — higher, > 18.3 µM
- Br[C](Br)(Br)[Hg][c]1ccccc1 — 2.1-fold lower, 8.55 µM
- CC(=O)C(=CN1CCN(C(=O)c2ccco2)C1=S)C(C)=O — 9.8-fold lower, 1.84 µM

Point of comparison: `Cc1c(C(=O)/C=C/c2ccccc2)[n+](=O)c2ccccc2n1[O-]`, TGI 20.9 µM. Against it:
- CC1=C[C@H]2c3c(c(O)c(O)c4oc(-c5ccccc5)cc(=O)c34)[C@H](c3cc(O)c(O)c4oc(-c5ccccc5)cc(=O)c34)[C@H]2C(C)(C)C1 — 11-fold lower, 1.86 µM
- N#Cc1cccnc1Cl — higher, > 100 µM
- Nc1nc(F)nc2c1ncn2C1OC(CO)C(O)C1O (centres undefined) — higher, > 100 µM
- CCn1c(SCc2ccc(C)cc2)nnc1-c1nn(-c2ccc(Cl)cc2Cl)c(-c2ccc(Cl)cc2)c1C — 1.9-fold lower, 10.9 µM
- CCn1c(-c2ccc(OC(C)=O)cc2)c(C)c2cc(OC(C)=O)ccc21 — within 1.5-fold, 25.6 µM
- O=c1cccc(C#CC#CC2=CCCCC2)o1 — 3.8-fold lower, 5.57 µM
- COc1ccc(OC)c2c(C(=O)O)c(Cc3ccccc3)ccc12 — higher, > 100 µM
- O=C(Nc1c(Cl)cc([N+](=O)[O-])cc1Cl)C(=O)C(C1OC(=O)c2ccccc21)[N+](=O)[O-] (centres undefined) — higher, > 100 µM
- N#CC1CC2(C1)OCCS2 (centres undefined) — higher, > 100 µM
- O=C1Nc2ccc(F)cc2/C1=C/c1ccc[nH]1 — higher, > 25 µM
- Br[C](Br)(Br)[Hg][c]1ccccc1 — within 1.5-fold, 21.5 µM
- C1C[OH+]CC[OH+]CC[OH+]CC[OH+]CC[OH+]1.[Cl-].[V] — 1.8-fold higher, 36.9 µM
- CC(=O)C(=CN1CCN(C(=O)c2ccco2)C1=S)C(C)=O — 3.3-fold lower, 6.24 µM
- COc1ccc(CC2NCCc3cc(OC)c(OC)cc32)cc1Br (centres undefined) — 2.8-fold higher, 59.1 µM

system: NCI-H23 lung; assay: DTP human tumour cell line panel, 48 h

Point of comparison: `CCn1c(SCc2ccc(C)cc2)nnc1-c1nn(-c2ccc(Cl)cc2Cl)c(-c2ccc(Cl)cc2)c1C`, GI50 2.24 µM. Against it:
- CC1=C[C@H]2c3c(c(O)c(O)c4oc(-c5ccccc5)cc(=O)c34)[C@H](c3cc(O)c(O)c4oc(-c5ccccc5)cc(=O)c34)[C@H]2C(C)(C)C1 — 6-fold lower, 0.375 µM
- Nc1nc(F)nc2c1ncn2C1OC(CO)C(O)C1O (centres undefined) — 3.6-fold higher, 7.99 µM
- O=c1cccc(C#CC#CC2=CCCCC2)o1 — 2-fold lower, 1.14 µM
- O=C1Nc2ccc(F)cc2/C1=C/c1ccc[nH]1 — higher, > 25 µM
- Br[C](Br)(Br)[Hg][c]1ccccc1 — 4.2-fold higher, 9.3 µM
- C1C[OH+]CC[OH+]CC[OH+]CC[OH+]CC[OH+]1.[Cl-].[V] — 34-fold higher, 76.9 µM
- CC(=O)C(=CN1CCN(C(=O)c2ccco2)C1=S)C(C)=O — 7.3-fold higher, 16.4 µM

Point of comparison: `Br[C](Br)(Br)[Hg][c]1ccccc1`, TGI 23 µM. Against it:
- CC1=C[C@H]2c3c(c(O)c(O)c4oc(-c5ccccc5)cc(=O)c34)[C@H](c3cc(O)c(O)c4oc(-c5ccccc5)cc(=O)c34)[C@H]2C(C)(C)C1 — 9-fold lower, 2.56 µM
- N#Cc1cccnc1Cl — higher, > 100 µM
- Nc1nc(F)nc2c1ncn2C1OC(CO)C(O)C1O (centres undefined) — higher, > 88.3 µM
- CCn1c(SCc2ccc(C)cc2)nnc1-c1nn(-c2ccc(Cl)cc2Cl)c(-c2ccc(Cl)cc2)c1C — 1.8-fold lower, 12.5 µM
- CCn1c(-c2ccc(OC(C)=O)cc2)c(C)c2cc(OC(C)=O)ccc21 — 2.5-fold higher, 57.4 µM
- O=c1cccc(C#CC#CC2=CCCCC2)o1 — 8-fold lower, 2.87 µM
- COc1ccc(OC)c2c(C(=O)O)c(Cc3ccccc3)ccc12 — higher, > 100 µM
- O=C(Nc1c(Cl)cc([N+](=O)[O-])cc1Cl)C(=O)C(C1OC(=O)c2ccccc21)[N+](=O)[O-] (centres undefined) — higher, > 100 µM
- Cc1c(C(=O)/C=C/c2ccccc2)[n+](=O)c2ccccc2n1[O-] — within 1.5-fold, 29.5 µM
- N#CC1CC2(C1)OCCS2 (centres undefined) — higher, > 100 µM
- O=C1Nc2ccc(F)cc2/C1=C/c1ccc[nH]1 — higher, > 25 µM
- C1C[OH+]CC[OH+]CC[OH+]CC[OH+]CC[OH+]1.[Cl-].[V] — higher, > 100 µM
- CC(=O)C(=CN1CCN(C(=O)c2ccco2)C1=S)C(C)=O — within 1.5-fold, 31.6 µM
- COc1ccc(CC2NCCc3cc(OC)c(OC)cc32)cc1Br (centres undefined) — 3.7-fold higher, 85.7 µM

system: UO-31 renal; assay: DTP human tumour cell line panel, 48 h

Point of comparison: `CC1=C[C@H]2c3c(c(O)c(O)c4oc(-c5ccccc5)cc(=O)c34)[C@H](c3cc(O)c(O)c4oc(-c5ccccc5)cc(=O)c34)[C@H]2C(C)(C)C1`, GI50 0.527 µM. Against it:
- Nc1nc(F)nc2c1ncn2C1OC(CO)C(O)C1O (centres undefined) — 9.7-fold higher, 5.1 µM
- CCn1c(SCc2ccc(C)cc2)nnc1-c1nn(-c2ccc(Cl)cc2Cl)c(-c2ccc(Cl)cc2)c1C — 5-fold higher, 2.66 µM
- O=c1cccc(C#CC#CC2=CCCCC2)o1 — 7.6-fold higher, 3.99 µM
- O=C1Nc2ccc(F)cc2/C1=C/c1ccc[nH]1 — higher, > 16.8 µM
- Br[C](Br)(Br)[Hg][c]1ccccc1 — 38-fold higher, 20.2 µM
- C1C[OH+]CC[OH+]CC[OH+]CC[OH+]CC[OH+]1.[Cl-].[V] — 160-fold higher, 86.3 µM
- CC(=O)C(=CN1CCN(C(=O)c2ccco2)C1=S)C(C)=O — 5.5-fold higher, 2.92 µM

Point of comparison: `CC(=O)C(=CN1CCN(C(=O)c2ccco2)C1=S)C(C)=O`, TGI 10.8 µM. Against it:
- CC1=C[C@H]2c3c(c(O)c(O)c4oc(-c5ccccc5)cc(=O)c34)[C@H](c3cc(O)c(O)c4oc(-c5ccccc5)cc(=O)c34)[C@H]2C(C)(C)C1 — 5.4-fold lower, 2 µM
- N#Cc1cccnc1Cl — higher, > 100 µM
- Nc1nc(F)nc2c1ncn2C1OC(CO)C(O)C1O (centres undefined) — higher, > 100 µM
- CCn1c(SCc2ccc(C)cc2)nnc1-c1nn(-c2ccc(Cl)cc2Cl)c(-c2ccc(Cl)cc2)c1C — the same, 10.8 µM
- CCn1c(-c2ccc(OC(C)=O)cc2)c(C)c2cc(OC(C)=O)ccc21 — 4.4-fold higher, 47.9 µM
- O=c1cccc(C#CC#CC2=CCCCC2)o1 — within 1.5-fold, 11 µM
- COc1ccc(OC)c2c(C(=O)O)c(Cc3ccccc3)ccc12 — higher, > 100 µM
- O=C(Nc1c(Cl)cc([N+](=O)[O-])cc1Cl)C(=O)C(C1OC(=O)c2ccccc21)[N+](=O)[O-] (centres undefined) — higher, > 100 µM
- Cc1c(C(=O)/C=C/c2ccccc2)[n+](=O)c2ccccc2n1[O-] — 3.2-fold higher, 34.2 µM
- N#CC1CC2(C1)OCCS2 (centres undefined) — higher, > 100 µM
- O=C1Nc2ccc(F)cc2/C1=C/c1ccc[nH]1 — higher, > 25 µM
- Br[C](Br)(Br)[Hg][c]1ccccc1 — 3.2-fold higher, 34.5 µM
- C1C[OH+]CC[OH+]CC[OH+]CC[OH+]CC[OH+]1.[Cl-].[V] — higher, > 100 µM
- COc1ccc(CC2NCCc3cc(OC)c(OC)cc32)cc1Br (centres undefined) — higher, > 100 µM

system: HCT-116 colon; assay: DTP human tumour cell line panel, 48 h

Point of comparison: `CC(=O)C(=CN1CCN(C(=O)c2ccco2)C1=S)C(C)=O`, GI50 4.05 µM. Against it:
- CC1=C[C@H]2c3c(c(O)c(O)c4oc(-c5ccccc5)cc(=O)c34)[C@H](c3cc(O)c(O)c4oc(-c5ccccc5)cc(=O)c34)[C@H]2C(C)(C)C1 — 15-fold lower, 0.272 µM
- Nc1nc(F)nc2c1ncn2C1OC(CO)C(O)C1O (centres undefined) — 4.8-fold higher, 19.4 µM
- CCn1c(SCc2ccc(C)cc2)nnc1-c1nn(-c2ccc(Cl)cc2Cl)c(-c2ccc(Cl)cc2)c1C — 7.1-fold lower, 0.573 µM
- O=c1cccc(C#CC#CC2=CCCCC2)o1 — 3.5-fold lower, 1.16 µM
- O=C1Nc2ccc(F)cc2/C1=C/c1ccc[nH]1 — higher, > 23.7 µM
- Br[C](Br)(Br)[Hg][c]1ccccc1 — 4.9-fold higher, 19.7 µM
- C1C[OH+]CC[OH+]CC[OH+]CC[OH+]CC[OH+]1.[Cl-].[V] — higher, > 100 µM

Point of comparison: `O=c1cccc(C#CC#CC2=CCCCC2)o1`, TGI 3.67 µM. Against it:
- CC1=C[C@H]2c3c(c(O)c(O)c4oc(-c5ccccc5)cc(=O)c34)[C@H](c3cc(O)c(O)c4oc(-c5ccccc5)cc(=O)c34)[C@H]2C(C)(C)C1 — 2.5-fold lower, 1.45 µM
- N#Cc1cccnc1Cl — higher, > 100 µM
- Nc1nc(F)nc2c1ncn2C1OC(CO)C(O)C1O (centres undefined) — higher, > 100 µM
- CCn1c(SCc2ccc(C)cc2)nnc1-c1nn(-c2ccc(Cl)cc2Cl)c(-c2ccc(Cl)cc2)c1C — 2.9-fold higher, 10.6 µM
- CCn1c(-c2ccc(OC(C)=O)cc2)c(C)c2cc(OC(C)=O)ccc21 — 6-fold higher, 22.1 µM
- COc1ccc(OC)c2c(C(=O)O)c(Cc3ccccc3)ccc12 — higher, > 100 µM
- O=C(Nc1c(Cl)cc([N+](=O)[O-])cc1Cl)C(=O)C(C1OC(=O)c2ccccc21)[N+](=O)[O-] (centres undefined) — higher, > 100 µM
- Cc1c(C(=O)/C=C/c2ccccc2)[n+](=O)c2ccccc2n1[O-] — 8.8-fold higher, 32.4 µM
- N#CC1CC2(C1)OCCS2 (centres undefined) — higher, > 100 µM
- O=C1Nc2ccc(F)cc2/C1=C/c1ccc[nH]1 — higher, > 25 µM
- Br[C](Br)(Br)[Hg][c]1ccccc1 — 13-fold higher, 47.9 µM
- C1C[OH+]CC[OH+]CC[OH+]CC[OH+]CC[OH+]1.[Cl-].[V] — higher, > 100 µM
- CC(=O)C(=CN1CCN(C(=O)c2ccco2)C1=S)C(C)=O — 3.7-fold higher, 13.7 µM
- COc1ccc(CC2NCCc3cc(OC)c(OC)cc32)cc1Br (centres undefined) — 10-fold higher, 36.9 µM
